Measured values as given in ChEMBL document CHEMBL1201862, “PubChem BioAssay data set” (2004).
Active and inactive are the calls of the source.

What was measured:
[1] = inhibitors of firefly luciferase expression or activity, dose response, H4 neuroglioma cells, luminescence (AID 1990); format: functional, cell-based
[2] = luciferase reporter signal reduction – luminescence, H4-C neuroglioblastoma cells, dose response (AID 2458); format: functional, cell-based;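 further: H4 neuroglioblastoma cells stably carrying a luciferase reporter gene fusion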
cells = format: functional, cell-based
[3] = Luminescence Cell-Based Dose Response HTS to Identify Inhibitors of 5'UTR Stem-Loop Driven Prion Protein mRNA Translation in H4 Neuroglioblastoma Cells. [Related pubchem assays: 1827 (Project Summary), 1813 (Primary HTS)]; format: functional
[4] = target: T1, Heat shock factor protein 1 (Mus musculus, UniProt P38532); test: inhibition of MG132-induced HSE-luciferase signal, confirmation, cell-based, NIH3T3, luminescence, dose retest (AID 2382); format: functional;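 further: NIH3T3 fibroblasts with HSF1-driven luciferase reporter stressed by proteasome inhibitor MG132; luminescence from HSF1-driven luciferase expression after 8 hours of MG132 stress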
T1 sequence (P38532 whole entry): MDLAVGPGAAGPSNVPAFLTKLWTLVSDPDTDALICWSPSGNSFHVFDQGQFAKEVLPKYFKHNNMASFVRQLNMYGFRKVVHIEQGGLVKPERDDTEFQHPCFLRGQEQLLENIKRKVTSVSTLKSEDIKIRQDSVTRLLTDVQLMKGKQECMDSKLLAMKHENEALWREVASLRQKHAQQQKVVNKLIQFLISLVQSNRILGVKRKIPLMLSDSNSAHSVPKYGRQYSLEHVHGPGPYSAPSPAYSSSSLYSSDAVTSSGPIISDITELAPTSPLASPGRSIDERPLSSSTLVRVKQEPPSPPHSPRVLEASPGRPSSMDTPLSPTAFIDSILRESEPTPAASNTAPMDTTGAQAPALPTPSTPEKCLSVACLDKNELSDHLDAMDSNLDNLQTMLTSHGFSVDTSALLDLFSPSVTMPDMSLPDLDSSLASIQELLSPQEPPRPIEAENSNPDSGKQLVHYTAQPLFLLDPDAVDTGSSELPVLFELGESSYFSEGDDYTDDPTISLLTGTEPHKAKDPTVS

[5] = inhibitors of SNCA 5'UTR-driven reporter translation, confirmation, H4 neuroglioma cells, luminescence (AID 1988); format: functional, cell-based
[6] = Luminescence-based counterscreen assay for KLF5 inhibitors: dose response cell-based high throughput screening assay to identify cytotoxic compounds using the IEC-6 intestinal epithelial cell line. [Related pubchem assays: 1700 (Primary screen.), 1834 (Confirmation screen.), 1858 (Summary AID.), 1905 (Counterscreen.)]; format: functional
[7] = inhibitors of SNCA 5'UTR-driven translation, confirmation, luminescence, H4 neuroglioblastoma cells, dose confirmation (AID 2454); format: functional, cell-based;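 further: H4 neuroglioblastoma cells carrying an alpha-synuclein 5'UTR luciferase reporter; potency for inhibition of the luciferase signal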
Tumor necrosis factor = Tumor necrosis factor (Homo sapiens, UniProt P01375); test: TNFa-triggered NF-kB activation inhibitors, SAR follow-up, cell-based, revised (AID 2337); format: functional
[8] = target: T2, Nucleotide-binding oligomerization domain-containing protein 1 (Homo sapiens, UniProt Q9Y239); test: NOD1 signaling inhibitors, SAR follow-up, revised (AID 2333); format: functional
T2 sequence (Q9Y239 whole entry): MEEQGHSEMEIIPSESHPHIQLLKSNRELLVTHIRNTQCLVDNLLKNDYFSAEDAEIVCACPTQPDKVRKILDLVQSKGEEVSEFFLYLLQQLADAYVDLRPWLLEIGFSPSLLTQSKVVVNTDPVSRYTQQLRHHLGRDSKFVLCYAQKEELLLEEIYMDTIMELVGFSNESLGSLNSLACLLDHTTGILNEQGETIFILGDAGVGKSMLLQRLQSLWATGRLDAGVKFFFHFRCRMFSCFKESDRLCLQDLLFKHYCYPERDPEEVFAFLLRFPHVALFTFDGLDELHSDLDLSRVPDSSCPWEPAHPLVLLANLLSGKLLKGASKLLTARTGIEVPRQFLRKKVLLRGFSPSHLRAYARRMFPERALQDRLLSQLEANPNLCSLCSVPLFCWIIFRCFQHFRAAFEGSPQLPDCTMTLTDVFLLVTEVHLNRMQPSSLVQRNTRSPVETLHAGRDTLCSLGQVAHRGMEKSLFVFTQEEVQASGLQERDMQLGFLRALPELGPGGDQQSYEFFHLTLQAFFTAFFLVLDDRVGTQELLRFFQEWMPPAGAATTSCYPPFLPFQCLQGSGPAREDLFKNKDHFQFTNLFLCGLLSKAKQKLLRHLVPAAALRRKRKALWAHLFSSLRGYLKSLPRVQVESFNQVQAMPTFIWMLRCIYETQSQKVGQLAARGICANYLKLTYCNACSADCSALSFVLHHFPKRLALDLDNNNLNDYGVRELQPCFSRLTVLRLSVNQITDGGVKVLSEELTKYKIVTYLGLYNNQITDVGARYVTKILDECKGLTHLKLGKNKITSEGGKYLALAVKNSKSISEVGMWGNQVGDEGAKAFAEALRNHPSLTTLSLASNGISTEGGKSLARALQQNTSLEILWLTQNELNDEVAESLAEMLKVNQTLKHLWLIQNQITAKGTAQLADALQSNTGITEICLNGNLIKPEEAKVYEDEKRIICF

[9] = target: Luciferin 4-monooxygenase (Photinus pyralis, UniProt P08659); test: firefly luciferase enzyme inhibitors, dose response, biochemical, dry powder samples, plate reader (AID 588451)
H4 [10] = test: inhibitors of control reporter signal in H4 cells – cell-based, plate reader, dry powder samples, counter-screen for prion reporter project, dose response (AID 540255); format: functional; details: Homo sapiens
H4 [11] = test: Amyloid Precursor 5' UTR neuroblastoma cell reporter line Measured in Cell-Based System Using Plate Reader - 2078-04_Inhibitor_Dose_DryPowder_Activity. [Related pubchem assays (depositor defined):AID488894]; format: functional; details: Homo sapiens
H4 [12] = test: Inhibitors of Prion Protein 5' UTR mRNA Measured in Cell-Based System Using Plate Reader - 2078-01_Inhibitor_Dose_DryPowder_Activity. [Related pubchem assays (depositor defined):AID488894]; format: functional; details: Homo sapiens
[13] = Shn3 3'UTR reporter inhibitors, dose response, cell-based, Clone20 osteoblasts, firefly luciferase, cherry-picked (AID 624132); format: functional;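 further: firefly luciferase luminescence from reporter carrying the Shn3 3'UTR in osteoblasts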
[14] = reduction of Shn3 3'UTR firefly luciferase signal, dose response, Schnurri-3 inhibitor project, cell-based, Clone20 osteoblasts, cherry-pick, set 2 (AID 720490); format: functional;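 further: actives lower the luminescence signal as inhibitors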
HEK293 = test: cells; details: Homo sapiens;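 further: cells exposed to compound for 14 hours overnight before viability readout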
[15] = target: C-C chemokine receptor type 6 (Homo sapiens, UniProt P51684); test: CCR6 receptor antagonists, dose response, cell-based, luminescent beta-arrestin readout (AID 504728); format: functional
Beta-galactosidase = Beta-galactosidase (Escherichia coli, UniProt Q8VNN2); test: beta-galactosidase enzyme inhibitors and activators, dose response, artefact control for CCR6 antagonist project, biochemical, E. coli enzyme, set 3 (AID 504712); format: functional
[16] = target: T3, Endoribonuclease toxin MazF (Escherichia coli K-12, UniProt P0AE70); test: MazF toxin RNase activators, dose response, biochemical, fluorescence, single-stranded RNA substrate, uHTS hits (AID 588481); format: functional
T3 sequence (P0AE70 whole entry): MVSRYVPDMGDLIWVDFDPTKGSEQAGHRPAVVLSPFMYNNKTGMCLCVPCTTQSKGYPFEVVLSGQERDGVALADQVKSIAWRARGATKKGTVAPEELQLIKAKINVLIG

[17] = target: T3, Endoribonuclease toxin MazF; test: fluorescent RNA oligo signal without MazF, dose response, counter-screen for MazEF activator project, biochemical, fluorescence, single-stranded RNase substrate (AID 588502); format: functional
[18] = target: 26S proteasome non-ATPase regulatory subunit 14 (Homo sapiens, UniProt O00487); test: inhibition of proteasome subunit RPN11 – biochemical, fluorescence polarization, uHTS hits, confirmation (AID 602368); format: functional
[19] = target: 72 kDa type IV collagenase (Homo sapiens, UniProt P08253); test: Dose Response validation of uHTS RPN11 inhibitor hits using a MMP-2 Fluorescence assay.; format: functional
Prothrombin = Prothrombin (Bos taurus, UniProt P00735); test: thrombin inhibition, dose response, biochemical, fluorescence polarization, uHTS hits (AID 602369); format: functional
[20] = target: Cyclin-dependent kinase 5/CDK5 activator 1 (Homo sapiens, UniProt Q00535); test: CDK5/p35 kinase inhibitors, dose response, biochemical, cherry-picked samples, set 2 (AID 504545)
[21] = target: T4, Dual specificity protein phosphatase 3 (Homo sapiens, UniProt P51452); test: VHR1 inhibitor Ki determination, SAR follow-up, biochemical, colorimetric (AID 2004)
HeLa = test: HeLa cell cytotoxicity, dose response, cytotoxicity control, 24 h, cherry-picked samples (AID 504726); format: functional, cell-based; details: Homo sapiens;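 further: potency for cytotoxicity as loss of luminescence signal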
ORF 73 = ORF 73 (Human herpesvirus 8, UniProt O40947); test: inhibitors of C-LANA binding to LBS DNA, dose response, biochemical, fluorescence polarization, cherry-picked samples (AID 504725); set-up: species or system Human gammaherpesvirus 8;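 further: fluorescence polarization of a labeled DNA duplex reporting LANA DNA binding; potency is for inhibitors that block LANA binding to the DNA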
Vero = Vero cell cytotoxicity, cytotoxicity control for flavivirus capping enzyme inhibitors (AID 588742); format: functional; details: Chlorocebus sabaeus
Genome polyprotein = Genome polyprotein (dengue virus type 2, UniProt P29990); test: Dengue-2 NS5 methyltransferase inhibitors, primary screen, biochemical, confirmation dose response (AID 588689); format: functional
[22] = target: Tyrosine-protein phosphatase non-receptor type 11 (Homo sapiens, UniProt Q06124); test: SHP2 phosphatase inhibition, dose response, selectivity assay for STEP inhibitor project, biochemical (AID 602367); format: functional; details: read-out: IC50_Mean
[23] = target: Tyrosine-protein phosphatase non-receptor type 5 (Homo sapiens, UniProt P54829); test: STEP phosphatase inhibitors, confirmation, biochemical, fluorescence intensity, uHTS hits (AID 602372); format: functional; details: read-out: IC50_Mean
[24] = target: T4, Dual specificity protein phosphatase 3; test: VHR phosphatase inhibition, dose response, selectivity assay for STEP inhibitor project, biochemical (AID 602374); format: functional; details: read-out: IC50_Mean

T4 sequence (P51452 whole entry): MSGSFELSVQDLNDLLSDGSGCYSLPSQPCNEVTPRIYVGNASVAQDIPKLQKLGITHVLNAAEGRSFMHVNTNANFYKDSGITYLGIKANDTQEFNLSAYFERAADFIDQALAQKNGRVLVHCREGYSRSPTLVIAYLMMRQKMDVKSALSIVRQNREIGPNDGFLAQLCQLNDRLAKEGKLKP
26S proteasome non-ATPase regulatory subunit 14, sequence (O00487 whole entry): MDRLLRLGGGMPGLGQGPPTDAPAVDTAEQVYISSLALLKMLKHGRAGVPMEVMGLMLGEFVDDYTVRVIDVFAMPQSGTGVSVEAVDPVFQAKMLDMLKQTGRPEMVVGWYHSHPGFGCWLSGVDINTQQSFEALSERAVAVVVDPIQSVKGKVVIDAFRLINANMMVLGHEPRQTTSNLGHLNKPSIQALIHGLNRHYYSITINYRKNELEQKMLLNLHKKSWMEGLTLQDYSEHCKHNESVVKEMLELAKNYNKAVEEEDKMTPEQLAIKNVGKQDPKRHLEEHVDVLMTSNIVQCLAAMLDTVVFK
Beta-galactosidase, sequence (Q8VNN2 whole entry): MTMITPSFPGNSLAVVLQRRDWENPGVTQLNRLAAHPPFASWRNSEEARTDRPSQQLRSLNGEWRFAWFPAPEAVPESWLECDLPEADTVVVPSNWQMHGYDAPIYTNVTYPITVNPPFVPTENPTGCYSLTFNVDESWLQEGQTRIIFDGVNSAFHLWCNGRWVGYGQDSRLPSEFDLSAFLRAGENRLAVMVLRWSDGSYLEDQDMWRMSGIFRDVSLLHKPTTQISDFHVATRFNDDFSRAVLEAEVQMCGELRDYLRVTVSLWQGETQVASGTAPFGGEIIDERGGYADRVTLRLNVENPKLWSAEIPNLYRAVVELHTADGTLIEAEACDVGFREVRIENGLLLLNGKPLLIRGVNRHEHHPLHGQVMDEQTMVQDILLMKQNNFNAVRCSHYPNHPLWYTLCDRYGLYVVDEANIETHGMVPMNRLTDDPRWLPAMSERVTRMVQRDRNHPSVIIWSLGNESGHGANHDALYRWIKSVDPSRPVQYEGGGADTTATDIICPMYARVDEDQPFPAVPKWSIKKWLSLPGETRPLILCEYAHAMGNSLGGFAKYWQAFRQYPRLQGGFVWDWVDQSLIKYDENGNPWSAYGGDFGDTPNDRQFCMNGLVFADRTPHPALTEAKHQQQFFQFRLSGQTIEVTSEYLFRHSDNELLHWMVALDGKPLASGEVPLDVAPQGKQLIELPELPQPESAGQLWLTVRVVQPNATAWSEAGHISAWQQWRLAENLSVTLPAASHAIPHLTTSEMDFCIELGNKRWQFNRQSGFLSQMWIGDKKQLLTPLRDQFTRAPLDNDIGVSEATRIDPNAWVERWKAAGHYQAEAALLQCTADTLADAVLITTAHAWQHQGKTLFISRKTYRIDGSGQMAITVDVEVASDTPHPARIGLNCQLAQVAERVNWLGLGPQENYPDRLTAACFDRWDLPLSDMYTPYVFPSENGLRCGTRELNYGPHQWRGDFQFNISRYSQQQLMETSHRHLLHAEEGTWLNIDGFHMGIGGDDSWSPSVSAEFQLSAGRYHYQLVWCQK
Tyrosine-protein phosphatase non-receptor type 11, sequence (Q06124 whole entry): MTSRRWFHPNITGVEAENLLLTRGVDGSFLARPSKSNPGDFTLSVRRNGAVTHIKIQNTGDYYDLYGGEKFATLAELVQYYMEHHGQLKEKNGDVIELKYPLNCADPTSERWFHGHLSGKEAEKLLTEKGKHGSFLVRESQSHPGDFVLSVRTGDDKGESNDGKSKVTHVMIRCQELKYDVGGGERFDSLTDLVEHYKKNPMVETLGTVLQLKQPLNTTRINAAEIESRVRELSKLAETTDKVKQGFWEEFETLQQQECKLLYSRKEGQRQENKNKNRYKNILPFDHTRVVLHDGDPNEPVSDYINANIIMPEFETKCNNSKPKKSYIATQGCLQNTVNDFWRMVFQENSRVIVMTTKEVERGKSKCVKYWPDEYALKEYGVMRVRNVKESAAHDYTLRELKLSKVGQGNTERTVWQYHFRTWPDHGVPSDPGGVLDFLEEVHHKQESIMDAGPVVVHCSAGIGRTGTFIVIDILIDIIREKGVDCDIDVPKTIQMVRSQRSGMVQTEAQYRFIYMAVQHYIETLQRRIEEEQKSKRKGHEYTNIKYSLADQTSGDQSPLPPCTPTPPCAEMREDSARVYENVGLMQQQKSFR
Genome polyprotein, sequence (P29990 2492-3391 limits assumed): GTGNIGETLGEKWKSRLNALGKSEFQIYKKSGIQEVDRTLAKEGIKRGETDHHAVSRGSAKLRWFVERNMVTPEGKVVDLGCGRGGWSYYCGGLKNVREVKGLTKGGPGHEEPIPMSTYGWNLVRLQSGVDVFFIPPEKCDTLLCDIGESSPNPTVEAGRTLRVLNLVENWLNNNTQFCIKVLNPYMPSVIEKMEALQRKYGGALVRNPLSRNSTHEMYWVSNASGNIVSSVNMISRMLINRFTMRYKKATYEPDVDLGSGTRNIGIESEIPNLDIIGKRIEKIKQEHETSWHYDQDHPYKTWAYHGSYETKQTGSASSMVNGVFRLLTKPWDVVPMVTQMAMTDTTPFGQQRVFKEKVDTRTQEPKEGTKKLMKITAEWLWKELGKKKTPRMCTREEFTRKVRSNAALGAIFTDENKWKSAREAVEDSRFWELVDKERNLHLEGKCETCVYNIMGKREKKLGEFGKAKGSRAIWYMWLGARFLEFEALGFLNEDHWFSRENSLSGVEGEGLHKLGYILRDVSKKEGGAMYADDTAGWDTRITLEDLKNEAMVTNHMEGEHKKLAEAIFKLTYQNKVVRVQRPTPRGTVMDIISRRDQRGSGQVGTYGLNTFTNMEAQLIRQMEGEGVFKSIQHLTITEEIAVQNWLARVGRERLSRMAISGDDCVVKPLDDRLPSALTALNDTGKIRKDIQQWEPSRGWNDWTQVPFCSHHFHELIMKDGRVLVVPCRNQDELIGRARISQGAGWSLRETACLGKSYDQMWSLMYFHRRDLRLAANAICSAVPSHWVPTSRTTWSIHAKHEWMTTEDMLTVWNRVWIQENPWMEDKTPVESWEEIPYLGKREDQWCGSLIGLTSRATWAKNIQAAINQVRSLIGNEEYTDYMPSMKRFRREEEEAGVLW
Tyrosine-protein phosphatase non-receptor type 5, sequence (P54829 whole entry): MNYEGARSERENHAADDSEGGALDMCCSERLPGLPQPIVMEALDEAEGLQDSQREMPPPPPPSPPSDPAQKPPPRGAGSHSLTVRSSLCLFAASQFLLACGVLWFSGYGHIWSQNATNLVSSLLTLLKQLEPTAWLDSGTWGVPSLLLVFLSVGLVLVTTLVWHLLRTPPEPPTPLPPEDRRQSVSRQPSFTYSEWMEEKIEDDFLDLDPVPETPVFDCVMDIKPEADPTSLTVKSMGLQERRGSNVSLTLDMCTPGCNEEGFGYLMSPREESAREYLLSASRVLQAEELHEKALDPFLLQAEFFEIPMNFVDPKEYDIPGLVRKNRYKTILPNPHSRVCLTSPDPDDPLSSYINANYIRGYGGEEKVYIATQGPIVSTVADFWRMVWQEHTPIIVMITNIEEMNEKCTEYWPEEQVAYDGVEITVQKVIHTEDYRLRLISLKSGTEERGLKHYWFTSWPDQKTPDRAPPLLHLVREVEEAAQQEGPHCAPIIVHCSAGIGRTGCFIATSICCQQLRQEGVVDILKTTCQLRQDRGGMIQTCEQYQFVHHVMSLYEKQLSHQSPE
72 kDa type IV collagenase, sequence (P08253 whole entry): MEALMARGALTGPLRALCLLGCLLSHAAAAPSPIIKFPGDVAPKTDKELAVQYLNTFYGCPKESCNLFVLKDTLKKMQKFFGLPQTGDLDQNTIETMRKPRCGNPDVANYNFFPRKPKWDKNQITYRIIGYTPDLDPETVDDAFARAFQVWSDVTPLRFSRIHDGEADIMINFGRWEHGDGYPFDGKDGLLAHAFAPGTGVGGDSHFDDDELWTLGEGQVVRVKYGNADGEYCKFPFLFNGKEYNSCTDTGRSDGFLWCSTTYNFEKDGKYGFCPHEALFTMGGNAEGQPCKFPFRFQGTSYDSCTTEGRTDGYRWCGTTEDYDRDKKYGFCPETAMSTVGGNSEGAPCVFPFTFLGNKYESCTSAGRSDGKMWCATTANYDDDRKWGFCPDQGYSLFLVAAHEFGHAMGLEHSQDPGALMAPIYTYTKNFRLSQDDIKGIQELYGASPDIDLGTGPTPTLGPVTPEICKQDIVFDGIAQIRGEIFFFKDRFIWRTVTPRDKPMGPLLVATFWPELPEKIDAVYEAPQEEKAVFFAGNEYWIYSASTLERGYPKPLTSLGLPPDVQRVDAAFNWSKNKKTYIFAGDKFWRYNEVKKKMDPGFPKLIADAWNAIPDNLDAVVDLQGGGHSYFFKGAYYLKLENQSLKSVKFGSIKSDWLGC
C-C chemokine receptor type 6, sequence (P51684 whole entry): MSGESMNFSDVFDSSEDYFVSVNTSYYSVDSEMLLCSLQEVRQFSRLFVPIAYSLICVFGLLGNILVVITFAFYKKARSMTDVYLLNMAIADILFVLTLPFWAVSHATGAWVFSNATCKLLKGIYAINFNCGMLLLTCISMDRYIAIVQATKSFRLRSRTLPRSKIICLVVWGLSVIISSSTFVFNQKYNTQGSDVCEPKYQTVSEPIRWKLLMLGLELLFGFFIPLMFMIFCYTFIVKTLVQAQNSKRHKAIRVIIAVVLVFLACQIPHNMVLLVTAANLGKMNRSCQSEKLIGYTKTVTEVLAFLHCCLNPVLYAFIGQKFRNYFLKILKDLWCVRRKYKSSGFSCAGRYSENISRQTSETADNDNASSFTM
Tumor necrosis factor, sequence (P01375 whole entry, the tested form may be a part): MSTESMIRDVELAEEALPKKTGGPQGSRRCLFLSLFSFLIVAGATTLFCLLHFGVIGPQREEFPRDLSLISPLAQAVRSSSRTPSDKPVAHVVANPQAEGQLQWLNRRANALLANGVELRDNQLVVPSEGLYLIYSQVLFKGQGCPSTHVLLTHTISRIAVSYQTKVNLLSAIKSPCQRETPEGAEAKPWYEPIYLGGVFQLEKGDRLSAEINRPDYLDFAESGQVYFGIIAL

Cc1cc(C(=O)COC(=O)c2ccccc2O)c(C)n1Cc1cccs1
active: EC50 [1] < 0.1 µM | EC50 [2] 0.102 µM | EC50 (cells) 0.146 µM | EC50 [3] < 0.1 µM | EC50 [4] < 0.16 µM | EC50 [5] < 0.1 µM | EC50 [7] 0.159 µM | IC50 (Tumor necrosis factor) < 0.0391 µM | IC50 [8] 0.285 µM | AC50 [9] 12.2 µM | AC50 (H4 [10]) 0.066 µM | AC50 (H4 [11]) 0.00332 µM | AC50 (H4 [12]) 0.013 µM | AC50 [13] 8.99 µM | AC50 [14] < 0.135 µM
> 39.8 µM (not active): IC50 [6]
inactive: IC50 (HEK293) > 20 µM

COc1ccccc1C(=O)/N=C(\N)Nc1nc2ccccc2o1
inactive: IC50 [15] > 66.6 µM | IC50 (Beta-galactosidase) > 66.6 µM | EC50 [16] > 99 µM | EC50 [17] > 99 µM | IC50 [19] > 100 µM
active: IC50 [18] 38.3 µM | IC50 (Prothrombin) 60.9 µM

CC(C)n1cnc2c(Nc3cccc(Cl)c3)nc(NCCCO)nc21
active: AC50 [20] 2.59 µM

O=C1NC(=S)/C(=C\c2ccc(-c3ccc([N+](=O)[O-])cc3)o2)S1
active: Ki [21] 1.86 µM

CC1=C(O)C(O)=C(C2=C(O)C(O)=C(C)C(=O)C2=O)C(=O)C1=O
inactive: IC50 [23] > 80 µM
active: AC50 (HeLa) 61.8 µM | AC50 (ORF 73) 312 µM | CC50 (Vero) 31.7 µM | IC50 (Genome polyprotein) 28.3 µM | IC50 [22] < 0.16 µM | IC50 [24] 1.27 µM
